Reference: article PMC7402526, “An in vitro quantitative systems pharmacology approach for deconvolving mechanisms of drug-induced, multilineage cytopenias” (PLoS Computational Biology, 2020)

Assays:
[1] = tested on: monocyte progenitors (monocyte prog); assay: MLTA, MonoP: concentration-response and QSP model fit; format: cell-based, human; conditions: Homo sapiens, Monocyte, 144 h
Procedure, shortened: (§1)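 Six-day flow cytometry counts, bead-normalized and expressed relative to the mean of six vehicle wells, underlie each value. Cells were primary human bone marrow CD34+ cells cultured in SFEM II with cytokines promoting multi-lineage differentiation and self-renewal.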

[2] = tested on: neutrophils (neutrophil-lin); assay: MLTA, Neut: concentration-response and QSP model fit; format: cell-based, human; conditions: Homo sapiens, Neutrophil, 144 h
Procedure, shortened: (§2)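 Freeze-thawed primary human bone marrow CD34+ cells were cultured 6 days in SFEM II with a cytokine cocktail, drug added on day 0. Subsets were counted by 17-parameter flow cytometry with TruCount beads and normalized to vehicle wells. An Emax QSP model (Emax 0–2, L1 regularization) was fitted to these counts.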

[3] = tested on: human bone marrow-derived CD34+ cells differentiated into multiple hematopoietic lineages; assay: MLTA, overall effects across hematopoietic lineages; format: cell-based; conditions: QSP model fit; EmaxT > 1.0 = cell-killing
Procedure, shortened: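 Thawed primary human bone marrow CD34+ cells grown in SFEM II with a multi-lineage cytokine cocktail, drug added day 0, 6 days at 37°C, 5% CO2. Subsets counted by 17-parameter flow cytometry with TruCount beads, normalized to six vehicle wells per donor (2–7 donors); Emax model fitted per cell type.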

[4] = tested on: late erythroid cells (Eryth II); assay: MLTA, ErythII: concentration-response and QSP model fit; format: cell-based, human; conditions: Homo sapiens, 144 h
Procedure, shortened: as §2

[5] = tested on: granulocyte progenitor (Gran-lin prog); assay: MLTA, GranP: concentration-response and QSP model fit; format: cell-based, human; conditions: Homo sapiens, 144 h
Procedure, shortened: as §1

[6] = tested on: early erythroid cells (Eryth I); assay: MLTA, ErythI: concentration-response and QSP model fit; format: cell-based, human; conditions: Homo sapiens, 144 h
Procedure, shortened: as §1

[7] = tested on: total viable cells (totalViableCells); assay: MLTA, total live cells concentration-response; format: cell-based; conditions: Homo sapiens, 144 h, 6 days, normalized to vehicle control, read-out: total_live normalized cell count
Procedure, shortened: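 Freeze-thawed primary human bone marrow CD34+ cells in SFEM II with cytokine cocktail, drug added day 0, 6 days at 37°C, 5% CO2. Live/dead counts by 17-parameter flow cytometry with DAPI exclusion, bead-normalized, volume-corrected to cells/mL. Normalized per donor to mean of six vehicle wells; 2–7 donors pooled.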

MK cells (MK-lin) = assay: MLTA, MK: concentration-response and QSP model fit; format: cell-based, human; conditions: Homo sapiens, 144 h
Procedure, shortened: as §2

In the case of `CCc1cnn2c(NCc3ccc[n+]([O-])c3)cc(N3CCCC[C@H]3CCO)nc12` [dinaciclib], the activity at 0.0002 µM ([1]; dose 0.2 nM, 6 days, normalized to vehicle control, read-out: MonoPs normalized cell count) is reported as 96.5%, the activity at 0.001 µM ([1]; dose 1 nM, 6 days, normalized to vehicle control, read-out: MonoPs normalized cell count) is reported as 106% and the activity at 0.005 µM ([1]; dose 5 nM, 6 days, normalized to vehicle control, read-out: MonoPs normalized cell count) is reported as 125%. It also gave an activity at 0.025 µM ([1]; dose 25 nM, 6 days, normalized to vehicle control, read-out: MonoPs normalized cell count) of 61.8%, an activity at 0.1 µM ([1]; dose 100 nM, 6 days, normalized to vehicle control, read-out: MonoPs normalized cell count) of 0.141% and an activity at 0.5 µM ([1]; dose 500 nM, 6 days, normalized to vehicle control, read-out: MonoPs normalized cell count) of 0.19%. The activity at 2.5 µM ([1]; dose 2500 nM, 6 days, normalized to vehicle control, read-out: MonoPs normalized cell count) was 0.231%, the Emax ([1]; parameter from QSP model fitting, read-out: Emax_drug_MonoP) was 0.04% and the activity at 0.0002 µM ([2]; dose 0.2 nM, 6 days, normalized to vehicle control, read-out: Neut normalized cell count) was 83.8%. It also gave an activity at 0.001 µM ([2]; dose 1 nM, 6 days, normalized to vehicle control, read-out: Neut normalized cell count) of 83.1%, an activity at 0.005 µM ([2]; dose 5 nM, 6 days, normalized to vehicle control, read-out: Neut normalized cell count) of 24.9% and an activity at 0.025 µM ([2]; dose 25 nM, 6 days, normalized to vehicle control, read-out: Neut normalized cell count) of 0.684%. For the same compound, the activity at 0.1 µM ([2]; dose 100 nM, 6 days, normalized to vehicle control, read-out: Neut normalized cell count) was 0.0259%, the activity at 0.5 µM ([2]; dose 500 nM, 6 days, normalized to vehicle control, read-out: Neut normalized cell count) was 0.0166% and the activity at 2.5 µM ([2]; dose 2500 nM, 6 days, normalized to vehicle control, read-out: Neut normalized cell count) was 0.0149%. For the same compound, the Emax ([2]; parameter from QSP model fitting, read-out: Emax_drug_Neut) was 28.1%, the “EmaxT effects across cell types (overall statement)” value [3] was greater than 1.0 and the activity at 0.0002 µM ([4]; dose 0.2 nM, 6 days, normalized to vehicle control, read-out: ErythII normalized cell count) was 90%. The activity at 0.001 µM ([4]; dose 1 nM, 6 days, normalized to vehicle control, read-out: ErythII normalized cell count) was 108%, the activity at 0.005 µM ([4]; dose 5 nM, 6 days, normalized to vehicle control, read-out: ErythII normalized cell count) was 98.7% and the activity at 0.025 µM ([4]; dose 25 nM, 6 days, normalized to vehicle control, read-out: ErythII normalized cell count) was 23.2%. The activity at 0.1 µM ([4]; dose 100 nM, 6 days, normalized to vehicle control, read-out: ErythII normalized cell count) was 0.0437%, the activity at 0.5 µM ([4]; dose 500 nM, 6 days, normalized to vehicle control, read-out: ErythII normalized cell count) was 0.0109% and the activity at 2.5 µM ([4]; dose 2500 nM, 6 days, normalized to vehicle control, read-out: ErythII normalized cell count) was 0.0201%. The Emax ([4]; parameter from QSP model fitting, read-out: Emax_drug_ErythroidII) was 7.1%, the activity at 0.0002 µM ([5]; dose 0.2 nM, 6 days, normalized to vehicle control, read-out: GranPs normalized cell count) was 97.3% and the activity at 0.001 µM ([5]; dose 1 nM, 6 days, normalized to vehicle control, read-out: GranPs normalized cell count) was 99.7%. For the same compound, the activity at 0.005 µM ([5]; dose 5 nM, 6 days, normalized to vehicle control, read-out: GranPs normalized cell count) was 93.8%, the activity at 0.025 µM ([5]; dose 25 nM, 6 days, normalized to vehicle control, read-out: GranPs normalized cell count) was 31.7% and the activity at 0.1 µM ([5]; dose 100 nM, 6 days, normalized to vehicle control, read-out: GranPs normalized cell count) was 0.0459%. It also gave an activity at 0.5 µM ([5]; dose 500 nM, 6 days, normalized to vehicle control, read-out: GranPs normalized cell count) of 0.033%, an activity at 2.5 µM ([5]; dose 2500 nM, 6 days, normalized to vehicle control, read-out: GranPs normalized cell count) of 0.0254% and an Emax ([5]; parameter from QSP model fitting, read-out: Emax_drug_GranP) of 0.0135%. For the same compound, the activity at 0.0002 µM ([6]; dose 0.2 nM, 6 days, normalized to vehicle control, read-out: ErythI normalized cell count) was 112%, the activity at 0.001 µM ([6]; dose 1 nM, 6 days, normalized to vehicle control, read-out: ErythI normalized cell count) was 104% and the activity at 0.005 µM ([6]; dose 5 nM, 6 days, normalized to vehicle control, read-out: ErythI normalized cell count) was 73.3%. For the same compound, the activity at 0.025 µM ([6]; dose 25 nM, 6 days, normalized to vehicle control, read-out: ErythI normalized cell count) was 23.9%, the activity at 0.1 µM ([6]; dose 100 nM, 6 days, normalized to vehicle control, read-out: ErythI normalized cell count) was 0.828% and the activity at 0.5 µM ([6]; dose 500 nM, 6 days, normalized to vehicle control, read-out: ErythI normalized cell count) was 0.888%. The activity at 2.5 µM ([6]; dose 2500 nM, 6 days, normalized to vehicle control, read-out: ErythI normalized cell count) was 0.845%, the Emax ([6]; parameter from QSP model fitting, read-out: Emax_drug_ErythroidI) was 112% and the viability at 0.0002 µM ([7]; dose 0.2 nM) was 95.4%. For the same compound, the viability at 0.001 µM ([7]; dose 1 nM) was 107%, the viability at 0.005 µM ([7]; dose 5 nM) was 92.4% and the viability at 0.025 µM ([7]; dose 25 nM) was 26.1%. For the same compound, the viability at 0.1 µM ([7]; dose 100 nM) was 0.282%, the viability at 0.5 µM ([7]; dose 500 nM) was 0.4% and the viability at 2.5 µM ([7]; dose 2500 nM) was 0.255%. The activity at 0.0002 µM (MK cells (MK-lin); dose 0.2 nM, 6 days, normalized to vehicle control, read-out: MK normalized cell count) was 90.3%, the activity at 0.001 µM (MK cells (MK-lin); dose 1 nM, 6 days, normalized to vehicle control, read-out: MK normalized cell count) was 111% and the activity at 0.005 µM (MK cells (MK-lin); dose 5 nM, 6 days, normalized to vehicle control, read-out: MK normalized cell count) was 71.8%. For the same compound, the activity at 0.025 µM (MK cells (MK-lin); dose 25 nM, 6 days, normalized to vehicle control, read-out: MK normalized cell count) was 11.8%, the activity at 0.1 µM (MK cells (MK-lin); dose 100 nM, 6 days, normalized to vehicle control, read-out: MK normalized cell count) was 0.294% and the activity at 0.5 µM (MK cells (MK-lin); dose 500 nM, 6 days, normalized to vehicle control, read-out: MK normalized cell count) was 0.526%. It also gave an activity at 2.5 µM (MK cells (MK-lin); dose 2500 nM, 6 days, normalized to vehicle control, read-out: MK normalized cell count) of 0.425% and an Emax (MK cells (MK-lin); parameter from QSP model fitting, read-out: Emax_drug_MK) of 33.1%.
